{
  "source": "patent US20210130789A1",
  "about": "“METHODS OF STROMAL CELL EXPANSION, USES AND MATERIALS RELATED THERETO” (CITY OF HOPE, priority 2019, published 2021)",
  "key": {"human islets": {"system": "human islets", "assay": "mRNA levels in human islets treated with DMOG", "type": "cell-based", "settings": "DMOG 1 mM", "experimental": "(§1) Islets of high and low purity, and mesenchymal stem cells (MSCs) as a potential source of human islets, isolated from human donor pancreata were treated with the PHD inhibitor DMOG. Alterations in gene expression, cell proliferation, survival and metabolism were characterized.\n(§2) As shown in FIGS. 10-12, pancreatic-derived human islets and MSCs were treated with DMOG or control at several concentrations and time intervals. The levels of HIF-1a were increased and PHD decreased in DMOG-treated versus control cells, and in a dose-dependent manner."}, "[1]": {"system": "IPTD-MSCs and islet cells", "assay": "TSG6 and VEGF expression in cells cultured under normoxic condition", "type": "cell-based, human", "settings": "normoxic condition (5% CO2, 21% O2)", "description": "(§3) Furthermore, DMOG protected the human islets and MSC from hypoxia by inhibiting Hypoxia-inducible Factor Prolyl Hydroxylase (HIF-Phase) resulted into augmentation of certain transcription factor(s) associated that could be highly beneficial for the islet and cell survival and function. Islets in particular are oxygen sensitive and when oxygen demand exceeds the supply, the HIF pathway is triggered to adapt for hypoxic conditions as a result of inactivation of HIF-Phase, an enzyme that contributes to degradation of HIF-1α. Thus, inhibiting HIF-Phase enzyme activity leads to increased HIF-1α protein in cells. Up-regulation of HIF-1α at transcriptional and translational levels leads to production of erythropoietin (EPO) and other proteins, including glycolytic enzyme, glucose transporter-1 (Glut-1) and vascular endothelial growth factor (VEGF). These factors are important to protect islets from cytokine induced cell death and also potentiate islet function, survival, and proliferation."}, "[2]": {"system": "Human umbilical vein endothelial cells (HUVECs)", "assay": "In vitro angiogenesis assay: endothelial tube formation with IPTD-MSC conditioned media", "type": "cell-based", "settings": "24 hours, media from treated IPTD-MSCs", "experimental": "Angiogenic capacity was assessed by quantifying endothelial tube formation. Human umbilical vein endothelial cells (HUVECs) (Cell Applications Inc., San Diego, Calif.; Cat #200p-05n) between passages 2 to 6 were cultured in a standard medium. Cells (1×10^5 cells/well) were plated in 24-well plates (Fisher, Cat #930186) coated with Matrigel (Corning, Cat #356234), and incubated for 30 minutes to allow cell attachment. Supernatants (150 μL/well) from control and stimulated IPTD-MSCs (DMOG, TNF-α, or DMOG+TNF-α) were added to obtain a total volume of 300 μL per well. Plates were then incubated at 37° C., 5% CO2 for 24 hours. At 4 and 24 hours, the wells were visualized using a Leica microscope and representative photographic images were obtained. Total endothelial tube number and tube length were determined using ImageJ software (NIH, Bethesda, Md.)."}, "diabetic mice": {"system": "diabetic mice", "assay": "Engraftment of DMOG-treated islets in diabetic mice", "type": "in vivo"}, "pancreatic ductal cells": {"system": "pancreatic ductal cells", "assay": "mRNA levels in pancreatic ductal cells treated with DMOG", "type": "cell-based, human", "settings": "DMOG 1 mM, one donor", "experimental": "One donor was tested. The data are expressed as mean±SD."}, "IPTD-MSCs [3]": {"system": "IPTD-MSCs", "assay": "Cytokine assay (Luminex) of supernatants from treated IPTD-MSCs", "type": "cell-based, human", "experimental": "Supernatants from cells cultured for 24 hours under various conditions (medium alone, or medium plus DMOG, TNF-α, or DMOG+TNF-α) were collected, and cytokine analysis performed using a Luminex assay kit (Bio-Rad, Hercules, Calif.) according to the manufacturer's protocol. The following growth factors/cytokines were measured: VEGF, IL-6, IL-8, MMP-9, MCP-1, MMP-2, IL-4, IL-10 and […]. Sample were measured in duplicate."}, "human islets and MSC": {"system": "human islets and MSC", "assay": "Protection of human islets and MSC from hypoxia", "type": "cell-based", "description": "as §3"}, "[4]": {"system": "pancreatic-derived human islets and MSCs", "assay": "HIF-1a, PHD and survival gene levels in DMOG-treated islets and MSCs", "type": "cell-based", "experimental": "as §1, §2"}, "IPTD-MSCs [5]": {"system": "IPTD-MSCs", "assay": "Quantitative real-time PCR of IPTD-MSCs treated in vitro with TNF-α and DMOG", "type": "cell-based, human", "settings": "24 hours; TNF-α 10 ng/ml and/or DMOG 1 mM; compared to control", "experimental": "Recombinant human TNF-α protein (R&D Systems, Minneapolis, Minn.) was reconstituted in research-grade water (Hospira, Lake Forest, Ill.) to a concentration of 100 ng/mL, aliquoted and stored at −20° C. Dimethyloxallyl glycine (DMOG; Cayman Chemicals, Ann Arbor, Mich.) was dissolved in water to yield a stock solution of 57.1 mM, aliquoted (100 μL) and stored at −80° C. IPTD-MSCs were incubated in T-25 flasks in 5 ml of CMRL-1066 medium supplemented with 5% hPL until ˜50% confluent. Cells were cultured for 24 hours in CMRL 1066 medium, or medium containing 10 ng/ml TNF-α, 1 mM DMOG or 1 mM DMOG and 10 ng/ml TNF-α. Following treatment, cells were collected in 1.7-ml Eppendorf tubes and stored in RLT buffer (Qiagen, Germantown, Md.) at −80° C. for future preparation of cDNA.\nThe TaqMan Gene Expression Assay system (ThermoFisher Scientific) was used to quantify β-ACTIN, TSG-6, NRF2, and VEGF mRNA levels. Total RNA was extracted using a Qiagen Mini Kit (Cat. No. 51306) and converted into cDNA. Real-time quantitative PCR was run in duplicate on a ViiA™ 7 Real-Time PCR System with a 384-well block (ThermoFisher Scientific). Thermal cycles were programmed for 20 seconds at 95° C. for the initial denaturation, followed by 45 cycles of […] at 95° C. for denaturation, 30 seconds at 60° C. for annealing, 60 seconds at 72° C. for extension, and a final extension at 72° C. for 10 minutes. All PCR runs were performed with negative (water) and positive controls. β-ACTIN was used as an internal control to quantify relative gene expression."}, "[6]": {"system": "pancreatic-derived human islets and MSCs", "assay": "Cytokine injury and proliferative capacity of DMOG-treated islets and MSCs in vitro", "type": "cell-based", "experimental": "as §1, §2"}, "[7]": {"settings": "culture medium after 24 hours, compared to control"}, "[8]": {"settings": "DMOG-treated versus control cells, dose-dependent"}},
  "data": [
    {"compound": "COC(=O)CNC(=O)C(=O)OC", "note": "[DMOG, dimethyloxalylglycine]", "values": [
      {"measurement": "mRNA levels of VEGF gene", "setting": "human islets; human islets Fr 1, purity >70%", "value": "increased mRNA levels"},
      {"measurement": "mRNA levels of EPO gene", "setting": "human islets; human islets Fr 2, purity <50%", "value": "increased mRNA levels"},
      {"measurement": "mRNA levels of INS gene", "setting": "human islets; human islets Fr 2, purity <50%", "value": "increased mRNA levels"},
      {"measurement": "mRNA levels of PDX1 gene", "setting": "human islets; human islets Fr 2, purity <50%", "value": "increased mRNA levels"},
      {"measurement": "mRNA levels of TSG-6 gene", "setting": "human islets; human islets Fr 2, purity <50%", "value": "increased mRNA levels"},
      {"measurement": "mRNA levels of VEGF gene", "setting": "human islets; human islets Fr 2, purity <50%", "value": "increased mRNA levels"},
      {"measurement": "VEGF upregulated", "setting": "[1]; IPTD-MSCs and islet cells", "value": 51, "unit": "fold"},
      {"measurement": "TSG6 upregulated", "setting": "[1]; IPTD-MSCs and islet cells for DMOG, MSC for TNF-α plus DMOG", "value": 31, "unit": "fold"},
      {"measurement": "numbers of cell tubes", "setting": "[2]", "value": "21.0±2.0"},
      {"measurement": "tube length", "setting": "[2]", "value": "28.6±9.9", "unit": "mm"},
      {"measurement": "engraftment", "setting": "diabetic mice", "value": "increased engraftment"},
      {"measurement": "glucose homeostasis", "setting": "diabetic mice", "value": "improved glucose homeostasis"},
      {"measurement": "mRNA levels of TSG-6 gene", "setting": "pancreatic ductal cells", "value": "increased mRNA levels"},
      {"measurement": "mRNA levels of VEGF gene", "setting": "pancreatic ductal cells", "value": "increased mRNA levels"},
      {"measurement": "Levels of MCP-1", "setting": "IPTD-MSCs [3]; conditioned media after 24 hours", "value": "reduced"},
      {"measurement": "secretion of IL-4", "setting": "IPTD-MSCs [3]; [7]", "value": "enhanced the secretion"},
      {"measurement": "secretion of IL-6", "setting": "IPTD-MSCs [3]; [7]", "value": "enhanced the secretion"},
      {"measurement": "secretion of IL-8", "setting": "IPTD-MSCs [3]; [7]", "value": "enhanced the secretion"},
      {"measurement": "secretion of VEGF", "setting": "IPTD-MSCs [3]; [7]", "value": "enhanced the secretion"},
      {"measurement": "protection from hypoxia", "setting": "human islets and MSC", "value": "protected"},
      {"measurement": "key survival genes (EPO, glycolytic enzyme, Glut-1, VEGF)", "setting": "[4]; DMOG treatment of islets and MSCs", "value": "upregulation"},
      {"measurement": "levels of HIF-1a", "setting": "[4]; [8]", "value": "increased"},
      {"measurement": "levels of PHD", "setting": "[4]; [8]", "value": "decreased"},
      {"measurement": "NRF2 expression", "setting": "IPTD-MSCs [5]", "value": "significantly increased"},
      {"measurement": "VEGF expression", "setting": "IPTD-MSCs [5]", "value": "significantly increased"},
      {"measurement": "proliferative capacity", "setting": "[6]", "value": "higher proliferative capacity"},
      {"measurement": "susceptibility to cytokine injury", "setting": "[6]", "value": "less susceptible"}
    ]},
    {"compound": "TNF-α", "values": [
      {"measurement": "numbers of cell tubes", "setting": "[2]", "value": "no effect"},
      {"measurement": "tube length", "setting": "[2]", "value": "no effect"},
      {"measurement": "effect on any of the cytokines examined", "setting": "IPTD-MSCs [3]; culture medium after 24 hours, compared to controls", "value": "did not have an effect"},
      {"measurement": "TSG-6 gene expression levels", "setting": "IPTD-MSCs [5]", "value": "significantly increased"}
    ]}
  ]
}
